Results taken from US9718738B2 (priority 2014, dated 2017).

Assays:
grain corn = conditions: in vivo
[1] = test system: long white bunching onions; conditions: in vivo

Substance: urea
- grain yield (grain corn): 180.5 bu/acre
- plant height after 6 weeks [1]: performing poorer than no nitrogen fertilizer at all
